Results reported in ChEMBL document CHEMBL1201862, “PubChem BioAssay data set” (2004).
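Dose response: 5 concentrations. Exposure: 48 h. Format: 96-well plates. Endpoint: linear interpolation; highest concentration if not reached. GI50 is the concentration that inhibits growth by half.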 Calls of active or inactive are those of the source. No stated cut-off is given here; in the data, active = GI50 up to about 1.1 µM and inactive = higher.

What was measured:
Experiment in all cases: inhibition of tumour cell growth, NCI panel, 48 h
MDA-MB-435 = test system: MDA-MB-435
HCT-15 = test system: HCT-15
ACHN = test system: ACHN
MDA-N = test system: MDA-N
UO-31 = test system: UO-31
SW-620 = test system: SW-620
NCI-H23 = test system: NCI-H23
SF-295 = test system: SF-295
SR = test system: SR
UACC-257 = test system: UACC-257
NCI/ADR-RES = test system: NCI/ADR-RES
HT-29 = test system: HT-29
OVCAR-4 = test system: OVCAR-4
SNB-75 = test system: SNB-75
Malme-3M = test system: Malme-3M
U-251 = test system: U-251
A498 = test system: A498
DU-145 = test system: DU-145
SK-MEL-28 = test system: SK-MEL-28
CAKI-1 = test system: CAKI-1

Row | SMILES | GI50 (MDA-MB-435) | GI50 (HCT-15) | GI50 (ACHN) | GI50 (MDA-N) | GI50 (UO-31) | GI50 (SW-620) | GI50 (NCI-H23) | GI50 (SF-295) | GI50 (SR) | GI50 (UACC-257) | GI50 (NCI/ADR-RES) | GI50 (HT-29) | GI50 (OVCAR-4) | GI50 (SNB-75) | GI50 (Malme-3M) | GI50 (U-251) | GI50 (A498) | GI50 (DU-145) | GI50 (SK-MEL-28) | GI50 (CAKI-1)
1 | CCOC(=O)c1c(C)n(Cc2ccc(Cl)cc2Cl)c2c1cc(O)c1[nH]c3c(c12)CCCC3 | 20.3 µM (inactive) | 41.7 µM | 25.6 µM (inactive) | 21.2 µM (inactive) | 20.7 µM (inactive) | 30.7 µM (inactive) | 27.5 µM (inactive) | 29.3 µM (inactive) | 0.136 µM (active) | 19.3 µM (inactive) | 18.8 µM (inactive) | 24 µM (inactive) | 17.1 µM (inactive) | 23.3 µM (inactive) | 20.6 µM (inactive) | 37.8 µM (inactive) | 19.5 µM (inactive) | 36.4 µM (inactive) | 22.1 µM (inactive) | 22.8 µM (inactive)
2 | c1ccc(CCN(Cc2nc3ccccc3[nH]2)Cc2nc3ccccc3[nH]2)cc1 | 12.4 µM (inactive) | 7.45 µM | 4.79 µM (inactive) | 16.2 µM (inactive) | 10.9 µM (inactive) | 10.3 µM (inactive) | 16 µM (inactive) | 14.8 µM (inactive) | 9.27 µM (inactive) | 14.5 µM (inactive) | 5.93 µM (inactive) | 17.3 µM (inactive) | 17.5 µM (inactive) | 16.4 µM (inactive) | 21.6 µM (inactive) | 6.59 µM (inactive) | 13.6 µM (inactive) | 14.4 µM (inactive) | 13.7 µM (inactive) | 3.85 µM (inactive)
3 | COc1ccc(C2CC(c3ccc4ccccc4c3O)=NN2)cc1OC (configuration not stated) | 27 µM (inactive) | 41.7 µM | 54.5 µM (inactive) | 21 µM (inactive) | 46.2 µM (inactive) | 39.7 µM (inactive) | 49.9 µM (inactive) | 44.8 µM (inactive) | 15.6 µM (inactive) | 57.8 µM (inactive) | 32.7 µM (inactive) | 47.5 µM (inactive) | 92.7 µM (inactive) | 56.4 µM (inactive) | 61.8 µM (inactive) | 44.1 µM (inactive) | 52.6 µM (inactive) | 77.6 µM (inactive) | 76.4 µM (inactive) | > 100 µM (inactive)
4 | CC(=O)Oc1cccc2c(/C=N/NC(N)=S)ncc(C)c12 | 4.29 µM (inactive) | 2.88 µM | 0.445 µM (active) | 3.59 µM (inactive) | 1.05 µM (active) | 4.59 µM (inactive) | 0.746 µM (active) | 2.47 µM (inactive) | 0.331 µM (active) | 5.51 µM (inactive) | 1.01 µM (active) | 4.48 µM (inactive) | 7.41 µM (inactive) | 4.03 µM (inactive) | 1.26 µM (inactive) | 1.01 µM (active) | 7.55 µM (inactive) | 0.347 µM (active) | 13.2 µM (inactive) | 4.17 µM (inactive)
5 | CC(=O)OCC(C)C1=C(O)C(=O)C2(C)C/C=C(/C)CC/C=C(\C)CCC(O)C(C)CCC12 (configuration not stated) | 17.5 µM (inactive) | 17.6 µM | 16.7 µM (inactive) | 17 µM (inactive) | 14.2 µM (inactive) | 19.2 µM (inactive) | 17.8 µM (inactive) | 15.6 µM (inactive) | 7.89 µM (inactive) | 18.6 µM (inactive) | 21.1 µM (inactive) | 17.3 µM (inactive) | 17.5 µM (inactive) | 16.2 µM (inactive) | 17.4 µM (inactive) | 17 µM (inactive) | 21.6 µM (inactive) | 17.9 µM (inactive) | 16.7 µM (inactive) | 17.3 µM (inactive)
6 | S=C(NCCc1ccccn1)N/N=C(\c1ccccc1)c1ccccn1 | 5.86 µM (inactive) | 0.0277 µM | < 0.0344 µM (active) | 8.2 µM (inactive) | 1.23 µM (inactive) | 0.0331 µM (active) | 0.125 µM (active) | 2.33 µM (inactive) | 1.36 µM (inactive) | 0.113 µM (active) | 0.0933 µM (active) | < 0.01 µM (active) | 3.01 µM (inactive) | 6.47 µM (inactive) | 0.0251 µM (active) | 0.121 µM (active) | 0.211 µM (active) | 3.4 µM (inactive) | 14.7 µM (inactive) | < 0.01 µM (active)
7 | COc1c(C)c2nc3ccccc3nc2c2c(O)ccnc12 | > 100 µM (inactive) | > 100 µM | 30.1 µM (inactive) | > 100 µM (inactive) | > 100 µM (inactive) | > 100 µM (inactive) | 55.6 µM (inactive) | 43.2 µM (inactive) | > 100 µM (inactive) | > 100 µM (inactive) | > 100 µM (inactive) | 69.7 µM (inactive) | > 100 µM (inactive) | 7.13 µM (inactive) | > 100 µM (inactive) | 54.5 µM (inactive) | 43.3 µM (inactive) | 34 µM (inactive) | > 100 µM (inactive) | > 100 µM (inactive)
8 | COc1cc2nc(-c3c(F)cccc3F)n(Cc3c(F)cccc3F)c2cc1Cc1c(F)cccc1F | 8.59 µM (inactive) | > 100 µM | > 42.6 µM (inactive) | > 100 µM (inactive) | 9.1 µM (inactive) | > 100 µM (inactive) | > 100 µM (inactive) | > 100 µM (inactive) | > 20.4 µM (inactive) | – | > 100 µM (inactive) | 3.53 µM (inactive) | 1.84 µM (inactive) | 2.74 µM (inactive) | > 24.8 µM (inactive) | > 100 µM (inactive) | 3.62 µM (inactive) | > 100 µM (inactive) | 0.35 µM (active) | 8.77 µM (inactive)
9 | COc1ccc(NC(S)=Nc2ccccc2)cc1 | > 100 µM (inactive) | > 100 µM | > 100 µM (inactive) | > 100 µM (inactive) | > 100 µM (inactive) | > 100 µM (inactive) | > 100 µM (inactive) | > 100 µM (inactive) | > 100 µM (inactive) | 39.4 µM (inactive) | > 100 µM (inactive) | > 100 µM (inactive) | > 100 µM (inactive) | > 100 µM (inactive) | > 100 µM (inactive) | > 100 µM (inactive) | > 100 µM (inactive) | > 100 µM (inactive) | > 100 µM (inactive) | > 100 µM (inactive)
10 | CCOC(=O)/C=C(/C(=O)OCC)n1ccc(=O)[nH]c1=O | 10.8 µM (inactive) | 3.08 µM | 3.99 µM (inactive) | 10.8 µM (inactive) | 14 µM (inactive) | 1.86 µM (inactive) | 10.4 µM (inactive) | 18.7 µM (inactive) | 4.36 µM (inactive) | 12.6 µM (inactive) | 15.5 µM (inactive) | 10.9 µM (inactive) | 8.61 µM (inactive) | 14 µM (inactive) | 1.9 µM (inactive) | 13.5 µM (inactive) | 20.6 µM (inactive) | 15.5 µM (inactive) | 6.56 µM (inactive) | 0.938 µM (active)
11 | c1ccc2c3c(ccc2c1)CSCc1ccc2ccccc2c1-3 | > 100 µM (inactive) | > 100 µM | > 100 µM (inactive) | > 100 µM (inactive) | > 100 µM (inactive) | – | > 100 µM (inactive) | > 100 µM (inactive) | 33 µM (inactive) | 43.5 µM (inactive) | > 100 µM (inactive) | > 100 µM (inactive) | 26.8 µM (inactive) | > 100 µM (inactive) | > 100 µM (inactive) | > 100 µM (inactive) | > 100 µM (inactive) | > 100 µM (inactive) | > 100 µM (inactive) | > 100 µM (inactive)
12 | COc1ccc(OCc2ccc3nc(-c4ccccc4)c(Cl)nc3c2)cc1 | 50.6 µM (inactive) | 50.7 µM | 27.9 µM (inactive) | 52.7 µM (inactive) | 62.8 µM (inactive) | 43.2 µM (inactive) | 19 µM (inactive) | 21.7 µM (inactive) | 28.2 µM (inactive) | > 100 µM (inactive) | 40.3 µM (inactive) | 76.7 µM (inactive) | 19.4 µM (inactive) | 36 µM (inactive) | 12.9 µM (inactive) | 12.3 µM (inactive) | 26.4 µM (inactive) | > 100 µM (inactive) | 47.3 µM (inactive) | 22.3 µM (inactive)
13 | C/C(=N\NC(=N)N)C(CN(C)C)C(c1ccccc1)c1c(O)c2ccccc2oc1=O (configuration not stated) | > 100 µM (inactive) | > 100 µM | > 100 µM (inactive) | > 100 µM (inactive) | > 100 µM (inactive) | > 100 µM (inactive) | > 100 µM (inactive) | > 100 µM (inactive) | > 100 µM (inactive) | > 100 µM (inactive) | > 100 µM (inactive) | > 100 µM (inactive) | > 100 µM (inactive) | 98.4 µM (inactive) | > 100 µM (inactive) | > 100 µM (inactive) | > 100 µM (inactive) | > 100 µM (inactive) | > 100 µM (inactive) | > 100 µM (inactive)
14 | CN1CCc2c(sc3ncn(N)c(=N)c23)C1 | > 100 µM (inactive) | > 100 µM | > 100 µM (inactive) | > 100 µM (inactive) | – | > 100 µM (inactive) | > 100 µM (inactive) | > 100 µM (inactive) | 63.8 µM (inactive) | > 100 µM (inactive) | > 100 µM (inactive) | > 100 µM (inactive) | > 100 µM (inactive) | > 100 µM (inactive) | > 100 µM (inactive) | > 100 µM (inactive) | > 100 µM (inactive) | > 100 µM (inactive) | > 100 µM (inactive) | > 100 µM (inactive)
